Data reported in patent US20120245137A1 (Zalicus Pharmaceuticals Ltd., priority 2009, published 2012).

Assays:
[1] = molecular target: human α1G T-type channels (Homo sapiens, UniProt O43497); assay: T-type calcium channel block, whole cell patch clamp, α1G; assay type: cell-based; conditions: HEK cells stably expressing human α1G; mainly non-inactivated protocol; values above 10,000 nM represented as 10000
Outline: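 Using standard patch-clamp, T-type currents were recorded from stably transfected human α1G or α1H HEK 293 cells. Separate non-inactivating and inactivation voltage protocols distinguished resting from voltage-dependent block by locally applied compound in 0.1-0.01% DMSO.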

[2] = molecular target: human α1H T-type channels (Homo sapiens, UniProt O95180); assay: T-type calcium channel block, whole cell patch clamp, α1H; assay type: cell-based; conditions: HEK cells stably expressing human α1H; mainly non-inactivated protocol; values above 10,000 nM represented as 10000
Procedure: T-type calcium channel blocking activity was assayed in human embryonic kidneycells, HEK 293 (Invitrogen), stably transfected with the T-type calcium channel subunits. Briefly, cells were cultured in Dulbecco's modified eagle medium (DMEM) supplemented with 10% fetal bovine serum, 200 U/ml penicillin, and 0.2 mg/mL streptomycin at 37° C. with 5% CO2. At 85% confluency, cells were split with 0.25% trypsin/1 mM EDTA and plated at 10% confluency on glass coverslips. At 12 hours, the medium was replaced, and the cells stably transfected using a standard calcium phosphate protocol and the appropriate calcium channel cDNA's. Fresh DMEM was supplied, and the cells transferred to 28° C./5% CO2.
Standard patch-clamp techniques were employed to identify blockers of T-type currents. Briefly, previously described HEK cell lines stably expressing human α1G, α1H, and α1I T-type channels were used for all the recordings (passage #: 4-20, 37° C., 5% CO2). Whole cell patch clamp experiments were performed using an Axopatch 200B amplifier (Axon Instruments, Burlingame, Calif.) linked to a personal computer equipped with pCLAMP software. Data were analyzed using Clampfit (Axon Instruments) and SigmaPlot 4.0 (Jandel Scientific). To obtain T-type currents, plastic dishes containing semi-confluent cells were positioned on the stage of a ZEISS AXIOVERT S100 microscope after replacing the culture medium with external solution (Table 2). Whole-cell patches were obtained using pipettes (borosilicate glass with filament, O.D.: 1.5 mm, I.D.: 0.86 mm, 10 cm length), fabricated on a SUTTER P-97 puller with resistance values of ˜5 MΩ (Table 3).
T-type currents were reliably obtained by using two voltage protocols: • “non-inactivating,” and • “inactivation.”
Test compounds were dissolved in external solution, 0.1-0.01% DMSO. After ˜10 minutes rest, they were applied by gravity close to the cell using a WPI microfil tubing. The “non-inactivated” pre-pulse was used to examine the resting block of a compound. The “inactivated” protocol was employed to study voltage-dependent block.

human α1H T-type channels, sequence (O95180 whole entry): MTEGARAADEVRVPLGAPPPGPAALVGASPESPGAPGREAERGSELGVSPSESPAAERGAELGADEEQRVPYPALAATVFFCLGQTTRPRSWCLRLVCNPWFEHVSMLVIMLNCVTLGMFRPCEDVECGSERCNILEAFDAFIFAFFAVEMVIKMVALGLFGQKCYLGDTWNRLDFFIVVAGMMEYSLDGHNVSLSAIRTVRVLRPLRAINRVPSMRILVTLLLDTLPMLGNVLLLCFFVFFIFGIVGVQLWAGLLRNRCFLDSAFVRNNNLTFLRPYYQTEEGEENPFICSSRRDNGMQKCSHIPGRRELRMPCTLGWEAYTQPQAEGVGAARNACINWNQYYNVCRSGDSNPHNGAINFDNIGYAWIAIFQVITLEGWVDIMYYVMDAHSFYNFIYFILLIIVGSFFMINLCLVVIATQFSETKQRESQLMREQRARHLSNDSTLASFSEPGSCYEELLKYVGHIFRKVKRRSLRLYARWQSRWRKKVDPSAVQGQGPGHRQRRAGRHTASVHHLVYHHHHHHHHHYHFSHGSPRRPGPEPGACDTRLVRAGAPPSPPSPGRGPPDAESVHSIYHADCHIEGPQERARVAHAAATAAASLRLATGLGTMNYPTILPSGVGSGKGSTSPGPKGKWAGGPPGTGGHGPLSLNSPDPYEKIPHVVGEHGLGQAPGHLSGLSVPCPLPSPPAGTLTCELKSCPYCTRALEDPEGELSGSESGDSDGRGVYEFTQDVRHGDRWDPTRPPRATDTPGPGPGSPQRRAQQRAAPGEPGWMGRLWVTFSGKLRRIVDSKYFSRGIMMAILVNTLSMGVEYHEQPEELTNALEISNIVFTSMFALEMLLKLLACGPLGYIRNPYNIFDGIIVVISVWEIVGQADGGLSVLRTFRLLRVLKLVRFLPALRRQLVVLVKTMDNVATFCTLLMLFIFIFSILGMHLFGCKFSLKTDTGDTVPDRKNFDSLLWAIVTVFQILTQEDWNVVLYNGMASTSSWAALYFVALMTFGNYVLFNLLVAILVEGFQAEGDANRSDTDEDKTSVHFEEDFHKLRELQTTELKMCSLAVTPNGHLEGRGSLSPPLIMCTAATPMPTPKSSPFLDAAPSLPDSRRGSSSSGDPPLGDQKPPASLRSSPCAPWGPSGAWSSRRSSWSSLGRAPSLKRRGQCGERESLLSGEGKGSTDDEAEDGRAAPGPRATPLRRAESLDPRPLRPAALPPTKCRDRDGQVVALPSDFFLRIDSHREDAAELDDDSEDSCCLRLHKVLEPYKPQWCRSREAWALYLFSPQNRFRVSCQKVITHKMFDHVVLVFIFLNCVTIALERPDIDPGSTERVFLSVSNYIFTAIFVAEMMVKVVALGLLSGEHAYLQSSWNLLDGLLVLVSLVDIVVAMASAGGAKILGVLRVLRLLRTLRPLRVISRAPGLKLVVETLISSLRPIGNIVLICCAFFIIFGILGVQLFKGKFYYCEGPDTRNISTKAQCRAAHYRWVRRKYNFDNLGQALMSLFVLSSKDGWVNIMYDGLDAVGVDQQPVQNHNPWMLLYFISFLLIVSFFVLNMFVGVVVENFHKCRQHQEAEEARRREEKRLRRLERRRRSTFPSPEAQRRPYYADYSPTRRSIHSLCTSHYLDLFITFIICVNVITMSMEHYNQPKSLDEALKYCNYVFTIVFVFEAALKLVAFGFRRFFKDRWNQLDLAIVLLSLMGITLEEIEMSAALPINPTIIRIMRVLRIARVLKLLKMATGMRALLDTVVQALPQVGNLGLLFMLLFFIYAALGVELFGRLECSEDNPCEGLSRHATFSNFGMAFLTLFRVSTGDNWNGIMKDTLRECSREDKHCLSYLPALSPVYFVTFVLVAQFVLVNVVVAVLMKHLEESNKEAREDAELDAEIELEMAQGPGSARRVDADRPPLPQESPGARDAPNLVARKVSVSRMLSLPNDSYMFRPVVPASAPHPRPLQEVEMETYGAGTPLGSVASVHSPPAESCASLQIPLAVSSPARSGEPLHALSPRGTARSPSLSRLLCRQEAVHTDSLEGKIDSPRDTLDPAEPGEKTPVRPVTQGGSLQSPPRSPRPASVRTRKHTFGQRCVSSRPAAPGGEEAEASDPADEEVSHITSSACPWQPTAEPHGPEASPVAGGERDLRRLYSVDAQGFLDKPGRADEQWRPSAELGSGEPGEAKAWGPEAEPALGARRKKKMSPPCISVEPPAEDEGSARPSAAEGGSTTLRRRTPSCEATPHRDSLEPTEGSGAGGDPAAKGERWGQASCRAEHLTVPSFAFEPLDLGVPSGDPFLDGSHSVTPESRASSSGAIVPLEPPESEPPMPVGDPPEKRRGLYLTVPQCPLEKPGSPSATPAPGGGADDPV
human α1G T-type channels, sequence (O43497 whole entry): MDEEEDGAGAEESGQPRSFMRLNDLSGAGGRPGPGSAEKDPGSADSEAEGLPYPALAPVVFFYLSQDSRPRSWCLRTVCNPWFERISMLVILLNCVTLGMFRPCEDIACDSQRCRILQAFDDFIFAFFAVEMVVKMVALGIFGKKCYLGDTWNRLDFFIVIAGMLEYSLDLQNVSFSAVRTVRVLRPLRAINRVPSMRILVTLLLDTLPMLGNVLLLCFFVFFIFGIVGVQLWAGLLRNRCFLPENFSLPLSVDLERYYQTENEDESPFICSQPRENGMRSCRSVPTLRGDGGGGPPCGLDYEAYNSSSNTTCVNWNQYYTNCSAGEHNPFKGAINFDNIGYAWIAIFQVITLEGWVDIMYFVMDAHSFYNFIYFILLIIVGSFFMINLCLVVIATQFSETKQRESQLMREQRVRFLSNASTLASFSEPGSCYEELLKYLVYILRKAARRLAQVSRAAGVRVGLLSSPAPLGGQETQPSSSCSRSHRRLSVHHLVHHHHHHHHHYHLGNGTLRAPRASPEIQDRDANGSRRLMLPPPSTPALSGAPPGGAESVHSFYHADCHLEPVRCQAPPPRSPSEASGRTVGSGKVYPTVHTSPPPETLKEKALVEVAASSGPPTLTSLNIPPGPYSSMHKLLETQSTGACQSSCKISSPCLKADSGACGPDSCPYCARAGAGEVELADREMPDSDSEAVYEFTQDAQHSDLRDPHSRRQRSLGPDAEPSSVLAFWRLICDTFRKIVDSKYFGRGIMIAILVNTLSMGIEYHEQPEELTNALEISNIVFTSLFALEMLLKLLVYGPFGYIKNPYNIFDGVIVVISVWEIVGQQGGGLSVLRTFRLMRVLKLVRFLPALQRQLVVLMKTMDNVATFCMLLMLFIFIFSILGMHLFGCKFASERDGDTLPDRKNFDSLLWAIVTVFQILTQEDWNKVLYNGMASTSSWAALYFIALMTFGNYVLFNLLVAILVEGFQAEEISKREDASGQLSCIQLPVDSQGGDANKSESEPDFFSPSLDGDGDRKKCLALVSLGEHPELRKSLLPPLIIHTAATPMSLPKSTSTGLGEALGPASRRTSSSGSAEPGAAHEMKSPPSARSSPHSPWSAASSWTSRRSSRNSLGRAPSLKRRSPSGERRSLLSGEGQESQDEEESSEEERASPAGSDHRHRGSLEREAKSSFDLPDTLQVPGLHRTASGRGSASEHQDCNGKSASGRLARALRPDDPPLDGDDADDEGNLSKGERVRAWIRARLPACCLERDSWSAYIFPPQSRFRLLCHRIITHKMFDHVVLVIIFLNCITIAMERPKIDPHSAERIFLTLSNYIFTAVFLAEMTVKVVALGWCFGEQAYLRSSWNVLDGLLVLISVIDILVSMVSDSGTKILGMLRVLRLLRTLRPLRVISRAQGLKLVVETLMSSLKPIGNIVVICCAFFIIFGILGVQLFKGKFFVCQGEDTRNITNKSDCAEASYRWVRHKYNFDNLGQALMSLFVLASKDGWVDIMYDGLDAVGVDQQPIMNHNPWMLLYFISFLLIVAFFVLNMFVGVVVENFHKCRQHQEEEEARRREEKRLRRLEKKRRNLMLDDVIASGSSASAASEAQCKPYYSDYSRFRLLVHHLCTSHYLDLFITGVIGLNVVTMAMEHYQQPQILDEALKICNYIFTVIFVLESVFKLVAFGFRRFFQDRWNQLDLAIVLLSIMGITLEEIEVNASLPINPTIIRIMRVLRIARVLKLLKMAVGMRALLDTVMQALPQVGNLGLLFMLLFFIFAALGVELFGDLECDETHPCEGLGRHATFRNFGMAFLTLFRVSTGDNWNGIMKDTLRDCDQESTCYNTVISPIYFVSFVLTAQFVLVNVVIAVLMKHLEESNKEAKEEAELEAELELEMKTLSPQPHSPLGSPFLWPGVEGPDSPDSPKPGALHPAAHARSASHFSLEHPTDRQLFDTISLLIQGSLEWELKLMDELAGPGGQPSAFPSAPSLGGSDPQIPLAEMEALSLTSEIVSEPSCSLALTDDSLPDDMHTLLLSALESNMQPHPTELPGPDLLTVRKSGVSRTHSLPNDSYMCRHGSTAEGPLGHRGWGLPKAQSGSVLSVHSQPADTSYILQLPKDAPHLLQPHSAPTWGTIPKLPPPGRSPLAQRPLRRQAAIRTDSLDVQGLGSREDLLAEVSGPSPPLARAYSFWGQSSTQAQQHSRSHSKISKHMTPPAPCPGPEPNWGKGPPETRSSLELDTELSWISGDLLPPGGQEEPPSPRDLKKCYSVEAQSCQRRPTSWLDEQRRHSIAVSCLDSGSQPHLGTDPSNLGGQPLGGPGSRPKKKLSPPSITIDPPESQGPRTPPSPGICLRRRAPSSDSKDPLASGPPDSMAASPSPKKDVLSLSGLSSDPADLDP

Molecule | IC50 [1] [µM] | IC50 [2] [µM]
CC(C)(CNC(=O)c1nc2cc(C(F)(F)F)ccc2[nH]1)S(=O)(=O)c1cccc(C(F)(F)F)c1 [Compound 457, N-(2-methyl-2-(3-(trifluoromethyl)phenylsulfonyl)propyl)-5-(trifluoromethyl)-1H-benzo[d]imidazole-2-carboxamide] | 0.56 | 1.2
CC(C)(CNC(=O)c1ccc(Oc2ccc(F)cc2)cc1)S(=O)(=O)c1cccc(C(F)(F)F)c1 [Compound 521, 4-(4-fluorophenoxy)-N-(2-methyl-2-(3-(trifluoromethyl)phenylsulfonyl)propyl) benzamide] | 0.47 | 0.91
CC(C)(CNS(=O)(=O)c1ccccc1C(F)(F)F)S(=O)(=O)c1cccc(C(F)(F)F)c1 [Compound 494, N-(2-methyl-2-(3-(trifluoromethyl)phenylsulfonyl)propyl)-2-(trifluoromethyl) benzenesulfonamide] | 0.4 | 3.53
1-(trifluoromethyl)-N-((1R,4R)-4- ((3- (trifluoromethyl)phenylsulfonyl) methyl)cyclohexyl) cyclobutanecarboxamide [Compound 109] | > 10 | > 10
CC(C)(CN[C@H]1CC[C@H](C(F)(F)F)CC1)S(=O)(=O)c1cccc(C(F)(F)F)c1 [Compound 517, (1R,4R)-N-(2-methyl-2-(3-(trifluoromethyl)phenylsulfonyl)propyl)-4-(trifluoromethyl)cyclo hexanamine] | 0.17 | 6.14
CC(C)(CCNCC(=O)NC1CCCCC1)S(=O)(=O)c1cccc(C(F)(F)F)c1 [Compound 472, N-cyclohexyl-2-(3-methyl-3-(3-(trifluoromethyl)phenylsulfonyl)butylamino) acetamide] | 0.62 | 3.47
CC(C)(CCNC(=O)c1ccc(F)cc1)S(=O)(=O)c1cccc(C(F)(F)F)c1 [Compound 468, 4-fluoro-N-(3-methyl-3-(3-(trifluoromethyl)phenylsulfonyl)butyl) benzamide] | 0.35 | 4.86
CC(C)(CNS(=O)(=O)c1cccc2cccnc12)S(=O)(=O)c1cccc(C(F)(F)F)c1 [Compound 491, N-(2-methyl-2-(3-(trifluoromethyl)phenylsulfonyl)propyl)quinoline-8-sulfonamide] | 0.47 | > 10
CC(C)(CCNC(=O)c1ncc(C(F)(F)F)cc1S(C)(=O)=O)S(=O)(=O)c1cccc(C(F)(F)F)c1 [Compound 523, N-(3-methyl-3-(3-(trifluoromethyl)phenylsulfonyl)butyl)-3-(methylsulfonyl)-5-(trifluorornethyl)picolinamide] | 0.56 | > 10
CC(C)(C(=O)Nc1ccc(Oc2ccc(F)cc2)cc1)S(=O)(=O)c1cccc(C(F)(F)F)c1 [Compound 488, N-(4-(4-fluorophenoxy)phenyl)-2-methyl-2-(3-(trifluoromethyl)phenylsulfonyl)propanamide] | 0.29 | 2.88
CC(C)(CNS(=O)(=O)c1ccc2ncsc2c1)S(=O)(=O)c1cccc(C(F)(F)F)c1 [Compound 501, N-(2-methyl-2-(3-(trifluoromethyl)phenylsulfonyl)propyl)benzo [d]thiazole-6-sulfonamide] | 0.42 | > 10
CC(C)(CNC(=O)c1nc2cc(F)ccc2[nH]1)S(=O)(=O)c1cccc(C(F)(F)F)c1 [Compound 478, 5-fluoro-N-(2-methyl-2-(3-(trifluoromethyl)phenylsulfonyl)propyl)-1H-benzo[d]imidazole-2-carboxamide] | 0.27 | 5.34
CC(C)(CNS(=O)(=O)c1ccc2c(c1)NC(=O)CO2)S(=O)(=O)c1cccc(C(F)(F)F)c1 [Compound 492, N-(2-methyl-2-(3-(trifluoromethyl)phenylsulfonyl)propyl)-3-oxo-3,4-dihydro-2H-benzo[b][1,4]oxazine-6-sulfonamide] | 0.59 | 9.26
CN(CCC(C)(C)S(=O)(=O)c1cccc(C(F)(F)F)c1)C(=O)c1ccc(F)c(C(F)(F)F)c1 [Compound 510, 4-fluoro-N-methyl-N-(3-methyl-3-(3-(trifluoromethyl)phenylsulfonyl)butyl)-3-(trifluoromethyl)benzamide] | 0.17 | 5.87
O=C(N[C@H]1CC[C@@](F)(S(=O)(=O)c2cccc(C(F)(F)F)c2)CC1)[C@@H]1CCCCN1 [Compound 532, (S)-N-((1S,4R)-4-fluoro-4-(3-(trifluoromethyl)phenylsulfonyl)cyclohexyl) piperidine-2-carboxamide] | 1.63 | > 10

Other lines, results leading:

IC50 [1] [µM] | IC50 [2] [µM] | Molecule
> 10 | 6.73 | Cc1cc(C(=O)N[C@H]2CC[C@H](CS(=O)(=O)c3cccc(C(F)(F)F)c3)CC2)c(C(F)(F)F)o1 [Compound 172, 5-methyl-2-(trifluoromethyl)-N-((1R,4R)-4-((3-(trifluoromethyl)phenylsulfonyl)methyl)cyclohexyl)furan-3-carboxamide]
0.1 | > 10 | CC(C)(CCS(=O)(=O)c1cccc(C(F)(F)F)c1)S(=O)(=O)c1cccc(C(F)(F)F)c1 [Compound 460]
7.34 | > 10 | CS(=O)(=O)c1nc(C(F)(F)F)ccc1C(=O)N[C@H]1CC[C@@](F)(S(=O)(=O)c2cccc(OC(F)(F)F)c2)CC1 [Compound 258, N-((1S,4S)-4-fluoro-4-(3-(trifluoromethoxy)phenylsulfonyl)cyclohexyl)-2-(methylsulfonyl)-6-(trifluoromethyl)nicotinamide]
3.67 | 3.5 | O=C(N[C@H]1CC[C@H](CS(=O)(=O)c2cccc(C(F)(F)F)c2)CC1)c1cc(F)cc(Cl)c1 [Compound 101, 3-chloro-5-fluoro-N-((1R,4R)-4-((3-(trifluoromethyl)phenylsulfonyl)methyl)cyclohexyl)benzamide]
0.47 | 2.88 | CC(C)(C(=O)Nc1ccc(Oc2ccc(C(F)(F)F)nc2)nc1)S(=O)(=O)c1cccc(C(F)(F)F)c1 [Compound 525, 2-methyl-2-(3-(trifluoromethyl)phenylsulfonyl)-N-(6-(6-(trifluoromethyl)pyridin-3-yloxy)pyridin-3-yl) propanamide]
0.4 | 2.5 | CC(C)(CNC(=O)c1cc(F)cc(Cl)c1)S(=O)(=O)c1cccc(C(F)(F)F)c1 [Compound 455, 3-chloro-5-fluoro-N-(2-methyl-2-(3-(trifluoromethyl)phenylsulfonyl)propyl)benzamide]
0.07 | > 10 | CC(C)S(=O)(=O)c1cc(C(F)(F)F)cnc1C(=O)NCC(C)(C)S(=O)(=O)c1cccc(C(F)(F)F)c1 [Compound 527, 3-(isopropylsulfonyl)-N-(2-methyl-2-(3-(trifluoromethyl)phenylsulfonyl)propyl)-5-(trifluoromethyl)picolinamide]
0.61 | 3.48 | CN(Cc1ccc(F)c(C(F)(F)F)c1)C(=O)C(C)(C)S(=O)(=O)c1cccc(C(F)(F)F)c1 [Compound 454, N-(4-fluoro-3-(trifluoromethyl)benzyl)-N,2-dimethyl-2-(3-(trifluoromethyl)phenylsulfonyl)propanamide]
0.29 | 0.64 | CC(C)(CCNC(=O)c1ccc(Oc2ccc(Cl)cc2)cc1)S(=O)(=O)c1cccc(C(F)(F)F)c1 [Compound 506, 4-(4-chlorophenoxy)-N-(3-methyl-3-(3-(trifluoromethyl)phenylsulfonyl)butyl) benzamide]
0.35 | 1.08 | CC(C)(CCNC(=O)c1ccc(F)c(C(F)(F)F)c1)S(=O)(=O)c1cc(F)cc(C(F)(F)F)c1 [Compound 533, 4-fluoro-N-(3-(3-fluoro-5-(trifluoromethyl)phenylsulfonyl)-3-methylbutyl)-3-(trifluoromethyl)benzamide]
0.48 | 6.97 | CC(C)(CNC(=O)c1cc(C(F)(F)F)ccn1)S(=O)(=O)c1cccc(C(F)(F)F)c1 [Compound 475, N-(2-methyl-2-(3-(trifluoromethyl)phenylsulfonyl)propyl)-4-(trifluoromethyl)picolinamide]
0.78 | 9.69 | CC(C)(CCNC(=O)c1ccc(Cl)cc1S(C)(=O)=O)S(=O)(=O)c1cccc(C(F)(F)F)c1 [Compound 529, 4-chloro-N-(3-methyl-3-(3-(trifluoromethyl)phenylsulfonyl)butyl)-2-(methylsulfonyl)benzamide]
